Consider seven molecules from patent US6337341B1 (priority 1996, dated 2002).

Some results are limits rather than exact numbers.

With `CSc1nnc(-c2snnc2C)o1`, the melting point stood at 65 °C. On to `COC(=O)/C=C\c1snnc1C` [Compound No. 341, methyl (Z)-3-(4-methyl-1,2,3-thiadiazol-5-yl)-2-propenate], for which the melting point was 80 to 85 °C.

Molecule `Cc1nnsc1CS(=O)(=O)c1ccccc1` came in with a melting point of 118 °C. For the molecule `COC(=O)/C=C/c1snnc1C` [Compound No. 338, methyl (E)-3-(4-methyl-1,2,3-thiadiazol-5-yl)-2-propenate], the melting point turned out to be 70 °C. Next, `COC(=O)c1csc(-c2snnc2-c2ccccc2)n1`: 124 °C.

For the molecule `Cc1nnsc1CN.Cl` [Compound No. 220, 5-aminomethyl-4-methyl-1,2,3-thiadiazole hydrochloride], the melting point is over 250 °C. For the molecule `Cc1nnsc1-c1nnc(S)o1` [Compound No. 102, 5-(5-mercapto-1,3,4-oxadiazol-2-yl)-4-methyl-1,2,3-thiadiazole], the melting point was found to be 182 °C.
